Results: paper PMC4023695 (ACS medicinal chemistry letters, 2014)
Marks after values point to notes of the source that are not given here.

Experiments:
MOR [1] = biological target: MOR (Rattus norvegicus, UniProt P33535); assay type: binding
[2] = Metabolic plasma stability assay; assay type: in vitro ADME; details: up to 20 h
Caco-2 cell monolayers = test: Caco-2 cell monolayer translocation; assay type: in vitro ADME
C57Bl6 mice = test: Mouse tail-flick assay; assay type: in vivo; details: intravenous, nonlinear regression of log dose–response curve
[3] = cited from earlier work
MOR [4] = details: read-out: GPI IC50; DALDA literature characterisation, no reference given; cited from earlier work
[5] = cis-concentration 13 nM, absence of unlabelled compound, means ± SE, n = 3

Chain of MOR (Rattus norvegicus, UniProt P33535) (P33535 whole entry): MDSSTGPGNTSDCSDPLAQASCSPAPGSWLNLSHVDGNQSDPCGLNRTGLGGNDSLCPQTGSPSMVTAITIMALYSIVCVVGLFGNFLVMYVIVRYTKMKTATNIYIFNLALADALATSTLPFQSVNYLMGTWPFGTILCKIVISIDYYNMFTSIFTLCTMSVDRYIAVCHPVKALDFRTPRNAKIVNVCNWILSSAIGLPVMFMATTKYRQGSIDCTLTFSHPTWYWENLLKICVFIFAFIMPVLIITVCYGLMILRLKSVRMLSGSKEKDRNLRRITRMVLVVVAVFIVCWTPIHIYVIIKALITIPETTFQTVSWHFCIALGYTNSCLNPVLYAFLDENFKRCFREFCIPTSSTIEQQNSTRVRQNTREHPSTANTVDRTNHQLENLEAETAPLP

Compound: N=C(N)NCCC[C@@H](NC(=O)[C@@H](N)Cc1ccc(OCc2cn([C@@H]3O[C@H](CO)[C@H](O)[C@H](O)[C@H]3O)nn2)cc1)C(=O)N[C@@H](Cc1ccccc1)C(=O)N[C@@H](CCCCN)C(N)=O [compound 3]
- loss in binding (MOR) relative to DALDA (MOR [1]; compound 3 vs DALDA): 22 fold
- Ki ratio μ/δ (MOR [1]; μ/δ receptor binding selectivity ratio): >130

Compound: Cc1cc(O)cc(C)c1C[C@H](N)C(=O)N[C@H](CCCNC(=N)N)C(=O)N[C@@H](Cc1ccccc1)C(=O)N[C@@H](Cc1cn([C@@H]2O[C@H](CO)[C@H](O)[C@H](O)[C@H]2O)nn1)C(N)=O [compound 4]
- degradation in human plasma [2]: no degradation products could be observed
- A–B and B–A permeabilities compared to mannitol (Caco-2 cell monolayers; 21 day old Caco-2 monolayers, 13 nM): slightly higher than the permeability of the passive flux marker mannitol
- Flux A–B (lumen–blood) (Caco-2 cell monolayers; [5]): 2.59 ± 0.15 nmol·cm^−2·min^−1 × 10^−7
- Flux B–A (blood–lumen) (Caco-2 cell monolayers; [5]): 2.96 ± 0.13 nmol·cm^−2·min^−1 × 10^−7
- ED50 tail-flick test (C57Bl6 mice): 0.27* mg/kg

Compound: Cc1cc(O)cc(C)c1C[C@H](N)C(=O)N[C@H](CCCNC(=N)N)C(=O)N[C@@H](Cc1ccccc1)C(=O)N[C@@H](Cc1cn([C@@H]2O[C@H](CO)[C@@H](O)[C@H](O)[C@H]2O)nn1)C(N)=O [compound 5]
- degradation in human plasma [2]: no degradation products could be observed

Compound: OC[C@@H](O)[C@@H](O)[C@H](O)[C@H](O)CO [mannitol]
- oral bioavailability [3]: ~ 20%

Compound: Tyr-D-Arg-Phe-Lys-NH2 [DALDA]
- IC50 (MOR [4]): 0.254 µM
